Assay results reported in patent KR20210056931A, “피리메타민을 유효성분으로 포함하는 면역 관련 질환의 치료 또는 예방용 약학 조성물” (priority 2019, dated 2021).

Experiments:
[1] = system: rheumatoid arthritis model, DBA-1J Mice [류마티스 관절염 모델]; assay: Histopathological examination in rheumatoid arthritis animal model, dose regimen study, Experiment 6; assay type: in vivo, mouse; settings: Day 14
[2] = system: rheumatoid arthritis model, DBA-1J Mice [류마티스 관절염 모델]; assay: Arthritis score in rheumatoid arthritis animal model, dose regimen study, Experiment 6; assay type: in vivo, mouse
TNF-α = assay: Plasma TNF-α (ELISA), Experiment 6-5; assay type: in vivo, mouse; settings: for Plasma TNF-α: Day 14
STAT3 = STAT3 activity (nuclear translocation) in Raw264.7, Experiment 3; assay type: cell-based; settings: 50 ng/ml, 2 h pretreatment; LPS 100 ng/ml 16 h; Fig. 6
NF-ĸB(p65) = assay: NF-kB activity (p65 nuclear translocation) in Raw264.7, Experiment 4; assay type: cell-based; settings: 50 ng/ml, 2 h pretreatment; LPS 100 ng/ml 2 h; Fig. 7

Compound: CCc1nc(N)nc(N)c1-c1ccc(Cl)cc1 [피리메타민, Pyrimethamine]
- Synovium proliferation ([1]; G10: Py 3 mg/kg/day BID PO): 3.0±0.0
- Bone destruction ([1]; G11: Py 5 mg/kg QD PO): 2.0±0.9
- Cartilage damage ([1]; G11: Py 5 mg/kg QD PO): 1.7±0.8
- Histopathological examination, total ([1]; G11: Py 5 mg/kg QD PO): 6.7±1.5
- Synovium proliferation ([1]; G11: Py 5 mg/kg QD PO): 3.0±0.0
- Bone destruction ([1]; G12: Py 15 mg/kg/day QD PO): 2.2±0.4
- Cartilage damage ([1]; G12: Py 15 mg/kg/day QD PO): 1.5±0.5
- Histopathological examination, total ([1]; G12: Py 15 mg/kg/day QD PO): 6.3±0.8
- Synovium proliferation ([1]; G12: Py 15 mg/kg/day QD PO): 2.7±0.5
- Arthritis score ([2]; Day 0, G7: Py 1 mg/kg/day QD IP): 2.5±1.0 total score
- Arthritis score ([2]; Day 0, G8: Py 1 mg/kg/day BID PO): 2.5±1.0 total score
- Arthritis score ([2]; Day 0, G9: Py 1 mg/kg/day QD PO): 2.5±1.0 total score
- Arthritis score ([2]; Day 0, G10: Py 3 mg/kg/day BID PO): 2.5±1.0 total score
- Arthritis score ([2]; Day 0, G11: Py 5 mg/kg QD PO): 2.5±1.2 total score
- Arthritis score ([2]; Day 0, G12: Py 15 mg/kg/day QD PO): 2.5±1.0 total score
- Arthritis score ([2]; Day 2, G7: Py 1 mg/kg/day QD IP): 4.7±1.6 total score
- Arthritis score ([2]; Day 2, G8: Py 1 mg/kg/day BID PO): 4.8±0.8 total score
- Arthritis score ([2]; Day 2, G9: Py 1 mg/kg/day QD PO): 4.7±1.4 total score
- Arthritis score ([2]; Day 2, G10: Py 3 mg/kg/day BID PO): 4.5±1.0 total score
- Arthritis score ([2]; Day 2, G11: Py 5 mg/kg QD PO): 4.3±2.0 total score
- Arthritis score ([2]; Day 2, G12: Py 15 mg/kg/day QD PO): 4.2±1.2 total score
- Arthritis score ([2]; Day 5, G7: Py 1 mg/kg/day QD IP): 7.2±1.9 total score
- Arthritis score ([2]; Day 5, G8: Py 1 mg/kg/day BID PO): 7.0±1.3 total score
- Arthritis score ([2]; Day 5, G9: Py 1 mg/kg/day QD PO): 6.8±1.7 total score
- Arthritis score ([2]; Day 5, G10: Py 3 mg/kg/day BID PO): 6.2±2.4 total score
- Arthritis score ([2]; Day 5, G11: Py 5 mg/kg QD PO): 5.8±2.5 total score
- Arthritis score ([2]; Day 5, G12: Py 15 mg/kg/day QD PO): 5.5±1.5 total score
- Arthritis score ([2]; Day 7, G7: Py 1 mg/kg/day QD IP): 9.2±1.5 total score
- Arthritis score ([2]; Day 7, G8: Py 1 mg/kg/day BID PO): 9.5±1.5 total score
- Arthritis score ([2]; Day 7, G9: Py 1 mg/kg/day QD PO): 9.3±2.0 total score
- Arthritis score ([2]; Day 7, G10: Py 3 mg/kg/day BID PO): 7.8±2.9 total score
- Arthritis score ([2]; Day 7, G11: Py 5 mg/kg QD PO): 6.7±2.2 total score
- Arthritis score ([2]; Day 7, G12: Py 15 mg/kg/day QD PO): 6.3±2.0 total score
- Arthritis score ([2]; Day 9, G7: Py 1 mg/kg/day QD IP): 9.8±1.9 total score
- Arthritis score ([2]; Day 9, G8: Py 1 mg/kg/day BID PO): 10.3±2.2 total score
- Arthritis score ([2]; Day 9, G9: Py 1 mg/kg/day QD PO): 10.5±2.7 total score
- Arthritis score ([2]; Day 9, G10: Py 3 mg/kg/day BID PO): 8.2±2.9 total score
- Arthritis score ([2]; Day 9, G11: Py 5 mg/kg QD PO): 7.5±3.0 total score
- Arthritis score ([2]; Day 9, G12: Py 15 mg/kg/day QD PO): 7.5±2.1 total score
- Arthritis score ([2]; Day 12, G7: Py 1 mg/kg/day QD IP): 11.2±2.5 total score
- Arthritis score ([2]; Day 12, G8: Py 1 mg/kg/day BID PO): 11.7±2.7 total score
- Arthritis score ([2]; Day 12, G9: Py 1 mg/kg/day QD PO): 12.0±2.6 total score
- Arthritis score ([2]; Day 12, G10: Py 3 mg/kg/day BID PO): 9.8±2.9 total score
- Arthritis score ([2]; Day 12, G11: Py 5 mg/kg QD PO): 8.8±2.5 total score
- Arthritis score ([2]; Day 12, G12: Py 15 mg/kg/day QD PO): 7.7±2.1 total score
- Arthritis score ([2]; Day 14, G7: Py 1 mg/kg/day QD IP): 11.7±2.7 total score
- Arthritis score ([2]; Day 14, G8: Py 1 mg/kg/day BID PO): 12.3±2.9 total score
- Arthritis score ([2]; Day 14, G9: Py 1 mg/kg/day QD PO): 12.7±2.9 total score
- Arthritis score ([2]; Day 14, G10: Py 3 mg/kg/day BID PO): 10.5±3.0 total score
- Arthritis score ([2]; Day 14, G11: Py 5 mg/kg QD PO): 9.5±2.6 total score
- Arthritis score ([2]; Day 14, G12: Py 15 mg/kg/day QD PO): 8.2±2.0 total score
- Arthritis score (in words) ([2]; Py 1 mg/kg/day QD PO and IP, 1 and 3 mg/kg/day BID PO, 5 mg/kg/day QD PO): 관절염 지수가 개선되지 않은
- Arthritis score (in words) ([2]; Py 15 mg/kg/day QD PO): 관절염 지수가 현저하게 감소
- Plasma TNF-α (TNF-α; G7: Py 1 mg/kg/day QD IP): 879.4 pg/mL
- Plasma TNF-α (TNF-α; G8: Py 1 mg/kg/day BID PO): 867.2 pg/mL
- Plasma TNF-α (TNF-α; G9: Py 1 mg/kg/day QD PO): 863.5 pg/mL
- Plasma TNF-α (TNF-α; G10: Py 3 mg/kg/day BID PO): 818.8 pg/mL
- Plasma TNF-α (TNF-α; G11: Py 5 mg/kg QD PO): 763.7 pg/mL
- Plasma TNF-α (TNF-α; G12: Py 15 mg/kg/day QD PO): 728.0 pg/mL
- Plasma TNF-α (in words) (TNF-α; pyrimethamine oral groups): 농도 의존적으로 혈장 TNF-α 수치가 감소
- STAT3 nuclear translocation (STAT3): LPS 16 시간 자극에 의한 STAT3의 핵이동을 억제함
- NF-ĸB(p65) activity (NF-ĸB(p65)): NF-ĸB(p65)의 활성이 현저히 저하
